Measurements published in ChEMBL document CHEMBL1201861, “Genomics of Drug Sensitity in Cancer screening data, Wellcome Trust Sanger Institute”.

Key:
CMK = assay: cells; assay type: functional, cell-based, Homo sapiens; details: Homo sapiens, CMK;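 note: growth inhibition of CMK cells, read out as cell viability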
Description: SANGER: Inhibition of human CMK cell growth in a cell viability assay.

TUR = assay: cells; assay type: functional, cell-based, Homo sapiens; details: Homo sapiens, TUR;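 note: growth inhibition of human TUR cells, read out with a cell viability assay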
Description: SANGER: Inhibition of human TUR cell growth in a cell viability assay.

SR = assay: cells; assay type: functional, cell-based, Homo sapiens; details: Homo sapiens, SR
Description: SANGER: Inhibition of human SR cell growth in a cell viability assay.

NCI-H187 = assay: cells; assay type: functional, cell-based, Homo sapiens; details: Homo sapiens, NCI-H187;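 note: growth inhibition of NCI-H187 cells, read out as cell viability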
Description: SANGER: Inhibition of human NCI-H187 cell growth in a cell viability assay.

BOKU = assay: cells; assay type: functional, cell-based, Homo sapiens; details: Homo sapiens, BOKU;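 note: growth inhibition of the human BOKU cell line, read out by a cell viability assay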
Description: SANGER: Inhibition of human BOKU cell growth in a cell viability assay.

EVSA-T = assay: cells; assay type: functional, cell-based, Homo sapiens; details: Homo sapiens, EVSA-T;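 note: growth inhibition of EVSA-T cells, read out with a cell viability assay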
Description: SANGER: Inhibition of human EVSA-T cell growth in a cell viability assay.

SK-MM-2 = assay: cells; assay type: functional, cell-based, Homo sapiens; details: Homo sapiens, SK-MM-2;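 note: growth inhibition of human SK-MM-2 cells, read out with a cell viability assay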
Description: SANGER: Inhibition of human SK-MM-2 cell growth in a cell viability assay.

BC1 cell line = assay: SANGER: Inhibition of human BC-1 cell growth in a cell viability assay.; assay type: functional, cell-based; details: Homo sapiens, BC1
RL95-2 = assay: cells; assay type: functional, cell-based; details: Homo sapiens;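 note: RL95-2 growth inhibition determined through a cell viability readout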
Description: SANGER: Inhibition of human RL95-2 cell growth in a cell viability assay.

THP-1 = assay: cells; assay type: functional, cell-based, Homo sapiens; details: Homo sapiens, THP-1;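 note: growth inhibition of THP-1 cells, read out via a cell viability assay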
Description: SANGER: Inhibition of human THP-1 cell growth in a cell viability assay.

CESS = assay: SANGER: Inhibition of human CESS cell growth in a cell viability assay.; assay type: functional, cell-based; details: Homo sapiens, CESS
BFTC-909 = assay: cells; assay type: functional, cell-based, Homo sapiens; details: Homo sapiens, BFTC-909
Description: SANGER: Inhibition of human BFTC-909 cell growth in a cell viability assay.

YAPC = assay: cells; assay type: functional, cell-based, Homo sapiens; details: Homo sapiens, YAPC;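 note: growth inhibition of YAPC cells, measured with a cell viability assay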
Description: SANGER: Inhibition of human YAPC cell growth in a cell viability assay.

RCM-1 = assay: cells; assay type: functional, cell-based, Homo sapiens; details: Homo sapiens, RCM-1;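 note: growth inhibition of the RCM-1 line, determined with a cell viability readout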
Description: SANGER: Inhibition of human RCM-1 cell growth in a cell viability assay.

PC-14 = assay: cells; assay type: functional, cell-based, Homo sapiens; details: Homo sapiens, PC-14;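 note: cell viability assay measuring inhibition of PC-14 cell growth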
Description: SANGER: Inhibition of human PC-14 cell growth in a cell viability assay.

SAS = assay: cells; assay type: functional, cell-based, Homo sapiens; details: Homo sapiens, SAS;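 note: growth inhibition of SAS cells, read out with a cell viability assay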
Description: SANGER: Inhibition of human SAS cell growth in a cell viability assay.

VMRC-RCZ = assay: cells; assay type: functional, cell-based, Homo sapiens; details: Homo sapiens, VMRC-RCZ
Description: SANGER: Inhibition of human VMRC-RCZ cell growth in a cell viability assay.

NCI-H1693 = assay: cells; assay type: functional, cell-based, Homo sapiens; details: Homo sapiens, NCI-H1693;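 note: growth inhibition of the human cell line, read out with a cell viability assay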
Description: SANGER: Inhibition of human NCI-H1693 cell growth in a cell viability assay.

SF-295 = assay: cells; assay type: functional, cell-based, Homo sapiens; details: Homo sapiens, SF-295;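 note: growth inhibition of SF-295 cells, read out with a cell viability assay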
Description: SANGER: Inhibition of human SF295 cell growth in a cell viability assay.

NCI-H630 = assay: cells; assay type: functional, cell-based, Homo sapiens; details: Homo sapiens, NCI-H630;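 note: growth inhibition of NCI-H630 cells, read out with a cell viability assay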
Description: SANGER: Inhibition of human NCI-H630 cell growth in a cell viability assay.

ChaGo-K-1 = assay: cells; assay type: functional, cell-based, Homo sapiens; details: Homo sapiens, ChaGo-K-1;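 note: growth inhibition of ChaGo-K-1 cells, read out with a cell viability assay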
Description: SANGER: Inhibition of human ChaGo-K-1 cell growth in a cell viability assay.

MKN-7 = assay: cells; assay type: functional, cell-based, Homo sapiens; details: Homo sapiens, MKN-7;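 note: growth inhibition of MKN-7 cells, read out with a cell viability assay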
Description: SANGER: Inhibition of human MKN7 cell growth in a cell viability assay.

HuCCT-1 = assay: cells; assay type: functional, cell-based, Homo sapiens, HuCCT1; details: Homo sapiens, HuCCT-1;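 note: growth inhibition of HuCCT-1 cells, read out by a cell viability assay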
Description: SANGER: Inhibition of human HuCCT1 cell growth in a cell viability assay.

COR-L23 = assay: cells; assay type: functional, cell-based, Homo sapiens; details: Homo sapiens, COR-L23;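 note: cell viability assay measuring how strongly compounds suppress growth of COR-L23 cells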
Description: SANGER: Inhibition of human COR-L23 cell growth in a cell viability assay.

HCC1954 = assay: cells; assay type: functional, cell-based, Homo sapiens; details: Homo sapiens, HCC1954;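 note: growth inhibition of human HCC1954 cells, read out with a cell viability assay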
Description: SANGER: Inhibition of human HCC1954 cell growth in a cell viability assay.

NCI-H520 = assay: cells; assay type: functional, cell-based, Homo sapiens; details: Homo sapiens, NCI-H520;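 note: growth inhibition of NCI-H520 cells, measured by a cell viability assay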
Description: SANGER: Inhibition of human NCI-H520 cell growth in a cell viability assay.

DK-MG = assay: cells; assay type: functional, cell-based, Homo sapiens; details: Homo sapiens, DK-MG;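 note: growth inhibition of DK-MG cells, read out with a cell viability assay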
Description: SANGER: Inhibition of human DK-MG cell growth in a cell viability assay.

SW780 = assay: cells; assay type: functional, cell-based, Homo sapiens; details: Homo sapiens, SW780;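 note: growth inhibition of the cells, read out with a cell viability assay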
Description: SANGER: Inhibition of human SW780 cell growth in a cell viability assay.

SW13 = assay: cells; assay type: functional, cell-based, Homo sapiens; details: Homo sapiens, SW13;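 note: IC50 is inhibition of SW13 cell growth, read out with a cell viability assay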
Description: SANGER: Inhibition of human SW13 cell growth in a cell viability assay.

HO-1-N-1 = assay: cells; assay type: functional, cell-based, Homo sapiens; details: Homo sapiens, HO-1-N-1;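 note: growth inhibition of human HO-1-N-1 cells, read out with a cell viability assay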
Description: SANGER: Inhibition of human HO-1-N-1 cell growth in a cell viability assay.

UMUC3 = assay: cells; assay type: functional, cell-based, Homo sapiens; details: Homo sapiens, UMUC3;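 note: growth inhibition of human UM-UC-3 cells, read out with a cell viability assay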
Description: SANGER: Inhibition of human UM-UC-3 cell growth in a cell viability assay.

SK-MES-1 = assay: cells; assay type: functional, cell-based, Homo sapiens; details: Homo sapiens, SK-MES-1;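 note: growth inhibition of human SK-MES-1 cells, read out with a cell viability assay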
Description: SANGER: Inhibition of human SK-MES-1 cell growth in a cell viability assay.

SK-LU-1 = assay: cells; assay type: functional, cell-based, Homo sapiens; details: Homo sapiens, SK-LU-1;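 note: cell viability assay measuring growth inhibition of human SK-LU-1 cells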
Description: SANGER: Inhibition of human SK-LU-1 cell growth in a cell viability assay.

HN = assay: cells; assay type: functional, cell-based, Homo sapiens; details: Homo sapiens, HN
Description: SANGER: Inhibition of human HN cell growth in a cell viability assay.

NY = assay: cells; assay type: functional, cell-based, Homo sapiens; details: Homo sapiens, NY
Description: SANGER: Inhibition of human NY cell growth in a cell viability assay.

HuP-T3 = assay: cells; assay type: functional, cell-based, Homo sapiens; details: Homo sapiens, HuP-T3;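 note: HuP-T3 cell growth inhibition, read out with a cell viability assay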
Description: SANGER: Inhibition of human HuP-T3 cell growth in a cell viability assay.

SW756 = assay: cells; assay type: functional, cell-based, Homo sapiens; details: Homo sapiens, SW756;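 note: growth inhibition of human SW756 cells, read out with a cell viability assay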
Description: SANGER: Inhibition of human SW756 cell growth in a cell viability assay.

UACC-62 = assay: cells; assay type: functional, cell-based, Homo sapiens; details: Homo sapiens, UACC-62;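 note: growth inhibition of human UACC-62 cells, read out by a cell viability assay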
Description: SANGER: Inhibition of human UACC-62 cell growth in a cell viability assay.

A-431 = assay: cells; assay type: functional, cell-based, Homo sapiens; details: Homo sapiens, A-431;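 note: growth inhibition of A-431 cells, determined with a cell viability read-out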
Description: SANGER: Inhibition of human A431 cell growth in a cell viability assay.

T47D = assay: cells; assay type: functional, cell-based, Homo sapiens; details: Homo sapiens, T47D;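 note: growth inhibition of human T47D cells, measured with a cell viability assay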
Description: SANGER: Inhibition of human T47D cell growth in a cell viability assay.

HGC-27 = assay: cells; assay type: functional, cell-based, Homo sapiens; details: Homo sapiens, HGC-27;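 note: growth inhibition of human HGC-27 cells, read out in a cell viability assay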
Description: SANGER: Inhibition of human HGC-27 cell growth in a cell viability assay.

SW1783 = assay: cells; assay type: functional, cell-based, Homo sapiens; details: Homo sapiens, SW1783
Description: SANGER: Inhibition of human SW1783 cell growth in a cell viability assay.

GCT = assay: cells; assay type: functional, cell-based, Homo sapiens; details: Homo sapiens, GCT;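 note: GCT cell line proliferation inhibition, read out with a cell viability assay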
Description: SANGER: Inhibition of human GCT cell growth in a cell viability assay.

DOK = assay: cells; assay type: functional, cell-based, Homo sapiens; details: Homo sapiens, DOK;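 note: cell viability assay read-out, values reflect inhibition of cell growth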
Description: SANGER: Inhibition of human DOK cell growth in a cell viability assay.

KYSE-270 = assay: cells; assay type: functional, cell-based, Homo sapiens; details: Homo sapiens, KYSE-270;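 note: cell growth inhibition measured with a viability assay in the human KYSE-270 line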
Description: SANGER: Inhibition of human KYSE-270 cell growth in a cell viability assay.

MEL-HO = assay: cells; assay type: functional, cell-based, Homo sapiens; details: Homo sapiens, MEL-HO
Description: SANGER: Inhibition of human MEL-HO cell growth in a cell viability assay.

SW-620 = assay: cells; assay type: functional, cell-based, Homo sapiens; details: Homo sapiens, SW-620;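 note: growth inhibition of human SW-620 cells, measured by a cell viability assay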
Description: SANGER: Inhibition of human SW620 cell growth in a cell viability assay.

COc1cc(-c2nn([C@H]3CC[C@H](N4CCN(C(C)=O)CC4)CC3)c3ncnc(N)c23)ccc1NC(=O)c1cc2ccccc2n1C
IC50 (CMK): > 5120 nM | IC50 (TUR): > 5120 nM | IC50 (SR): > 5120 nM | IC50 (NCI-H187): > 5120 nM | IC50 (BOKU): > 5120 nM | IC50 (EVSA-T): > 5120 nM | IC50 (SK-MM-2): > 5120 nM | IC50 (BC1 cell line): > 5120 nM | IC50 (RL95-2): 379 nM | IC50 (THP-1): > 5120 nM | IC50 (CESS): > 5120 nM

N#Cc1c(O)c2c(-c3ccc(-c4ccccc4O)cc3)csc2[nH]c1=O
IC50 (CMK): 2.2 nM | IC50 (BFTC-909): > 1020 nM | IC50 (TUR): 345 nM | IC50 (SR): 114 nM | IC50 (YAPC): > 1020 nM | IC50 (RCM-1): > 1020 nM | IC50 (PC-14): > 1020 nM | IC50 (SAS): > 1020 nM | IC50 (VMRC-RCZ): > 1020 nM | IC50 (NCI-H1693): > 1020 nM | IC50 (SF-295): > 1020 nM | IC50 (NCI-H630): > 1020 nM | IC50 (NCI-H187): 545 nM | IC50 (ChaGo-K-1): > 1020 nM | IC50 (MKN-7): > 1020 nM | IC50 (HuCCT-1): > 1020 nM | IC50 (BOKU): > 1020 nM | IC50 (EVSA-T): 381 nM | IC50 (COR-L23): > 1020 nM | IC50 (HCC1954): > 1020 nM | IC50 (NCI-H520): > 1020 nM | IC50 (DK-MG): > 1020 nM | IC50 (SW780): > 1020 nM | IC50 (SK-MM-2): 109 nM | IC50 (SW13): > 1020 nM | IC50 (HO-1-N-1): > 1020 nM | IC50 (UMUC3): > 1020 nM | IC50 (SK-MES-1): > 1020 nM | IC50 (BC1 cell line): 69.7 nM | IC50 (SK-LU-1): > 1020 nM | IC50 (HN): > 1020 nM | IC50 (NY): > 1020 nM | IC50 (HuP-T3): > 1020 nM | IC50 (RL95-2): > 1020 nM | IC50 (SW756): > 1020 nM | IC50 (UACC-62): > 1020 nM | IC50 (A-431): 29.2 nM | IC50 (T47D): > 1020 nM | IC50 (HGC-27): > 1020 nM | IC50 (THP-1): 342 nM | IC50 (SW1783): > 1020 nM | IC50 (GCT): > 1020 nM | IC50 (CESS): 101 nM | IC50 (DOK): > 1020 nM | IC50 (KYSE-270): > 1020 nM | IC50 (MEL-HO): > 1020 nM | IC50 (SW-620): > 1020 nM

Cc1ccc(-c2c(C(=O)CCl)n(CCCO)c3ncnc(N)c23)cc1
IC50 (CMK): > 4000 nM | IC50 (TUR): > 4000 nM | IC50 (SR): > 4000 nM | IC50 (NCI-H187): > 4000 nM | IC50 (BOKU): > 4000 nM | IC50 (EVSA-T): 2400 nM | IC50 (SK-MM-2): > 4000 nM | IC50 (BC1 cell line): > 4000 nM | IC50 (RL95-2): > 4000 nM | IC50 (THP-1): > 4000 nM | IC50 (CESS): > 4000 nM

COc1cc2ncn(-c3cc(OCc4ccccc4C(F)(F)F)c(C(N)=O)s3)c2cc1OC [GW843682X]
IC50 (CMK): 36 nM | IC50 (TUR): > 256 nM | IC50 (SR): 14.5 nM | IC50 (NCI-H187): 23.3 nM | IC50 (BOKU): 135 nM | IC50 (EVSA-T): 237 nM | IC50 (SK-MM-2): > 256 nM | IC50 (BC1 cell line): 244 nM | IC50 (RL95-2): 11.3 nM | IC50 (THP-1): > 256 nM | IC50 (CESS): 13.2 nM

CC(=O)O[C@H]1C(=O)[C@@]2(C)[C@H]([C@H](OC(=O)c3ccccc3)[C@]3(O)C[C@H](OC(=O)[C@H](O)[C@@H](NC(=O)c4ccccc4)c4ccccc4)C(C)=C1C3(C)C)[C@]1(OC(C)=O)CO[C@@H]1C[C@@H]2O [PACLITAXEL]
IC50 (CMK): 27.3 nM | IC50 (TUR): > 102 nM | IC50 (SR): 10.3 nM | IC50 (NCI-H187): > 102 nM | IC50 (BOKU): > 102 nM | IC50 (EVSA-T): 39.2 nM | IC50 (SK-MM-2): > 102 nM | IC50 (BC1 cell line): > 102 nM | IC50 (RL95-2): 0.668 nM | IC50 (THP-1): > 102 nM | IC50 (CESS): 7.37 nM

N[C@@H](CSC(c1ccccc1)(c1ccccc1)c1ccccc1)C(=O)O [S-TRITYL-L-CYSTEINE]
IC50 (CMK): 1560 nM | IC50 (TUR): > 5120 nM | IC50 (SR): 718 nM | IC50 (NCI-H187): > 5120 nM | IC50 (BOKU): > 5120 nM | IC50 (EVSA-T): 3400 nM | IC50 (SK-MM-2): > 5120 nM | IC50 (BC1 cell line): > 5120 nM | IC50 (RL95-2): 605 nM | IC50 (THP-1): > 5120 nM | IC50 (CESS): 606 nM

CCN(CC)CCNC(=O)c1c(C)[nH]c(/C=C2\C(=O)Nc3ccc(F)cc32)c1C [SUNITINIB]
IC50 (CMK): 1960 nM | IC50 (TUR): > 8000 nM | IC50 (SR): 1550 nM | IC50 (NCI-H187): > 8000 nM | IC50 (BOKU): > 8000 nM | IC50 (EVSA-T): > 8000 nM | IC50 (SK-MM-2): 5480 nM | IC50 (BC1 cell line): 7250 nM | IC50 (RL95-2): 2110 nM | IC50 (THP-1): > 8000 nM | IC50 (CESS): 7100 nM
